# According to US6875571B2, “NF-AT polypeptides and polynucleotides and screening methods for immunosuppressive agents” (The Board of Trustees of the Leland Stanford Junior …, priority 1991, dated 2005):
# B1: NF-ATc: human cytosolic NF-AT subunit, protein of 716 amino acids (SEQ ID NO: 38), expressed from cDNA (protein)
# chain: MPSTSFPVPSKFPLGPAAAVFGRGETLGPAPRAGGTMKSAEEEHYGYASSNVSPALPLPTAHSTLPAPCHNLQTSTPGIIPPADHPSGYGAALDGCPAGYFLSSGHTRPDGAPALESPRIEITSCLGLYHNNNQFFHDVEVEDVLPSSKRSPSTATLSLPSLEAYRDPSCLSPASSLSSRSCNSEASSYESNYSYPYASPQTSPWQSPCVSPKTTDPEEGFPRGLGACTLLGSPQHSPSTSPRASVTEESWLGARSSRPASPCNKRKYSLNGRQPPYSPHHSPTPSPHGSPRVSVTDDSWLGNTTQYTSSAIVAAINALTTDSSLDLGDGVPVKSRKTTLEQPPSVALKVEPVGEDLGSPPPPADFAPEDYSSFQHIRKGGFCDQYLAVPQHPYQWAKPKPLSPTSYMSPTLPALDWQLPSHSGPYELRIEVQPKSHHRAHYETEGSRGAVKASAGGHPIVQLHGYLENEPLMLQLFIGTADDRLLRPHAFYQVHRITGKTVSTTSHEAILSNTKVLEIPLLPENSMRAVIDCACILKLRNSDIELRKGETDIGRKNTRVRLVFRVHVPQPSGRTLSLQVASNPIECSQRSAQELPLVEKQSTDSYPVVGGKKMVLSGHNFLQDSKVIFVEKAPDGHHVWEMEAKTDRDLCKPNSLVVEIPPFRNQRITSPVHVSFYVCNGKRKRSQYQRFTYLPANGNAIFLTVSREHERVGCFF
# modifications: human
# Key:
# [1] = system: NF-AT; experiment: Gel mobility shift assay of NF-AT DNA binding activity in extracts of treated Jurkat cells; assay type: cell-based, human
# Experimental: Nuclear extracts were made according to the procedures of Ohlsson and Edlund (Cell 45:35 (1986)). Briefly, nuclei were extracted with 0.3 M (NH4)2SO4 and the fraction that contained the nuclear proteins was precipitated with 0.2 g/ml (NH4)2SO4 and dialyzed for 4 h. at 4° C. The NF-AT binding site of the IL-2 enhancer (−290 and −263) was used as a probe for binding activity. The binding experiment was carried out essentially as described in Shaw, J. P. Science 241:202-205 (1988)).
# NFATZ Jurkat cells were pretreated with 100 μM anisoymycin (Sigma), a protein synthesis inhibitor, for 30 minutes before stimulating the cells. Conditions for activating the cells and preparing nuclear and cytoplasmic extracts are described in Example 3.
# (§1) NFATZ Jurkat cells and JK12/90.1 cells (a gift from N. Shastri) were stimulated for 2 hours with 20 ng/ml PMA and 2 μM ionomycin. […] Nuclear extracts were prepared as described previously with modifications. Cytoplasmic extracts were made from the same cells as the nuclear extracts. Following lysis of the cells with buffer A [10 mM Hepes (pH 7.8), 15 mM Kcl, 2 mM MgCl2, 1 mM DTT, 0.1 mM EDTA, 0.1 mM PMSF] plus 0.05% NP-40, and pelleting of the nuclei, the cytoplasmic fraction was removed and stabilized with 10% (vol/vol) glycerol and 1/10 volume of buffer B [0.3 M Hepes (pH 7.8), 1.4 M Kcl, and 30 mM MgCl2]. The cytoplasmic extract was centrifuged at 200,000 g for 15 minutes. An equal volume of 3 M (NH4)2SO4 (pH 7.9) was added to the supernatant, and precipitated proteins were pelleted at 100,000 g for 10 minutes. The pelleted cytoplasmic proteins were resuspended in buffer C [50 mM Hepes (pH 7.8), 50 mM KCl, 1 mM DTT, 0.1 mM EDTA, 0.1 mM PMSF, 10% (vol/vol) glycerol] and desalted by passage over a P6DG column (BioRad). Protein concentrations were determined using a BioRad protein assay kit. To assess the completeness of the nuclear and cytoplasmic fractionation, we assayed for Oct-1 (a constitutive nuclear located DNA binding protein) binding activity and β-galactosidase (cytoplasmic localized) enzyme activity. […]
# [2] = system: NFATZ Jurkat cells and JK12/90.1 cells; experiment: Toxic effects on the stimulated cells; assay type: cell-based; details: FK506 100 ng/ml or CsA 500 ng/ml, five minutes prior to PMA and ionomycin, 2 hours
# [3] = system: nuclear component of NF-AT; experiment: Reconstitution of NF-AT binding: synthesis of the nuclear component; assay type: cell-based, human; details: PMA/ionomycin-stimulated cells
# Experimental: as §1
# [4] = system: NF-AT; experiment: In vitro transcription directed by multimerized NF-AT binding sites (G-less) by nuclear extracts of treated Jurkat cells; assay type: cell-based, human; details: nuclear extracts of stimulated/FK506-treated cells, 10 ng/ml
# Experimental: The effect of FK506 on the ability of NF-AT to direct transcription was tested by preparing nuclear extracts from stimulated or stimulated/FK506-treated cells and testing their ability to transcribe a G-less cassette in which transcription was dependent upon three NF-AT sites located within a synthetic promoter.
# Promoter constructs, nuclear extracts and transcription reactions were prepared as described. NFATZ Jurkat cells, derived from a human T cell leukemia, were stimulated with […] PMA (Sigma), 2 μM ionomycin (Calbiochem) for 2 hours. FK506 was used at 10 ng/ml and added five minutes prior to the addition of PMA and ionomycin. […] Transcription was quantitated using a radioanalytic imaging system (AMBIS). […]
# In general, transcription reactions (20 μl) contained 40 μg/ml of circular DNA template [400 ng of the test construct, 40 ng of the AdMLP G-less construct, and 360 ng of poly dI-dC (Pharmacia)] and between 3-5 mg/ml nuclear protein extract in a buffer containing 25 mM Hepes (pH 7.6), 50 mM KCl, 6 mM MgCl2, 0.6 mM each of ATP and CTP, 7 μM UTP, 7 μCi [a-^32P] […] The pellets were rinsed with 70% ethanol, air dried, and resuspended in 10 μl of loading dye (90% formamide, 0.01% xylene cyanol, and 0.01% bromophenol blue in 1×TBE.) The transcripts were analyzed on 6% denaturing polyacrylamide gels. […]
# [5] = system: NF-ATc; experiment: Western blot mobility of epitope tagged NF-ATc expressed in Jurkat cells; assay type: cell-based, human; details: stimulated 2 hrs, whole cell lysates
# Experimental: Whole cell lysates were analyzed by western blotting as in FIG. 13.
# The cDNA shown in FIG. 12 was fused to the Hemophilus influenza hemaglutinin (HA) 12 amino acid epitope tag in the determined reading frame and operably linked to the SRα promoter in the vector pBJ5 (Lin et al, 1990, Science 249:677-679). The resultant construct was transiently transfected by electroporation into Jurkat human T lymphocytes, and into Cos fibroblast cells. Expression of the epitope-tagged NF-ATc protein was determined by Western blotting of whole cell extracts prepared from the transfected cells, using an antibody (12CA5, Berkeley Antibody Co., CA) that detects the HA epitope.
# Post-translational modification of NF-ATc was investigated in cells treated with agents that activate PKC or increase intracellular Ca++. […] Whole cell lysates were analyzed by western blotting as in FIG. 13. […] This is consistent with a dephosphorylation event, possibly by direct action of calcineurin (Clipstone and Crabtree (1992) Nature 357: 695-697), however, any of a large number of processes could produce the observed mobility changes. There is evidence that NF-ATp is a substrate for calcineurin, however, the mobility shifts produced by phosphatase treatment of NF-ATp or NF-ATc are far greater than those observed in FIG. 19. These observations indicate that NF-ATc is not a direct substrate of calcineurin.
# [6] = system: NF-AT binding site; experiment: NF-AT luciferase reporter co-transfected with NF-ATc expression vector in Cos and Jurkat cells; assay type: cell-based; details: overexpression in Cos cells and Jurkat cells
# Experimental: (§2) The NF-ATc cDNA was operably linked to a portion of the SV40 early gene promoter and the mV transcription regulatory regions in the pBJ vector. This expression vector was co-tranfected into Jurkat and Cos cells with either a) three copies of NF-AT binding site linked to and directing transcription of luciferase (results shown in FIGS. 14A and 14B) the entire IL-2 enhancer/promoter directing transcription of luciferase (results shown in FIG. 14B). Cytosolic extracts were prepared and luciferase assays carried out by standard procedures (de Wet et al, 1987, Mol. Cell. Biol. 7:724-[…]).
# [7] = system: IL-2 promoter; experiment: IL-2 enhancer/promoter luciferase reporter co-transfected with NF-ATc expression vector in Cos cells; assay type: cell-based; details: overexpression in Cos cells
# Experimental: as §2
molecule,measurement,setting,value
C=CC[C@@H]1/C=C(\C)C[C@H](C)C[C@H](OC)[C@H]2O[C@@](O)(C(=O)C(=O)N3CCCC[C@H]3C(=O)O[C@H](/C(C)=C/[C@@H]3CC[C@@H](O)[C@H](OC)C3)[C@H](C)[C@@H](O)CC1=O)[C@H](C)C[C@@H]2OC [FK506],reduction of NF-AT DNA-binding activity in the extracts,"[1]; nuclear extracts of stimulated/FK506-treated cells, 10 ng/ml",50 to 80%
same,toxic effects to the cells,[2],without any toxic effects
same,synthesis of the nuclear component of NF-AT,[3],did not inhibit
same,reduction of in vitro transcription directed by multimerized NF-AT binding sites,[4],2.5 fold
"CCCCCCCCCCCCCC(=O)O[C@@H]1[C@@H](C)[C@@]2(O)[C@@H](C=C(CO)C[C@]3(O)C(=O)C(C)=C[C@@H]23)[C@@H]2C(C)(C)[C@]12OC(C)=O [PMA, phorbol myristate acetate]",mobility of NF-ATc versus non-treated cells,[5],slower migrating
COc1ccc(C[C@H]2NC[C@H](O)[C@H]2OC(C)=O)cc1 [anisomycin],appearance of the NF-AT complex in activated T cells,[1]; NFATZ Jurkat cells pretreated with 100 μM for 30 minutes before stimulation,completely blocked
same,ability of cytoplasmic extracts from treated cells to reconstitute the NF-AT complex,[1]; cytoplasmic extracts of cells grown with 100 μM protein synthesis inhibitor,able to reconstitute
C[C@H](CCC(=O)O)C[C@H](C)C[C@H](C)C(=O)/C=C(\O)[C@H](C)C[C@H](C)C/C=C/[C@@H](C)[C@@H](O)[C@@H](C)[C@@H](O)C[C@@H]1CC[C@@](C)([C@H]2CC[C@@](C)([C@@H](C)O)O2)O1 [ionomycin],mobility of NF-ATc versus non-treated cells,[5],migrates faster
B1,enhancement of NF-AT-dependent transcription,[6],50-1000 fold
same,activation of the IL-2 promoter,[7],activates
